Here are results for three molecules from patent US20100120775A1, “Farnesoid X Receptor Agonists” (SMITHKLINE BEECHAM CORPORATION, priority 2006, published 2010).

One assay relates to mice on high-fat diet. The conditions noted are these: cited from earlier work.
Another assay concerns ob/ob mice. The note with it: male ob/ob mice; 30 mg/kg intraperitoneally; cited from earlier work.
In a further assay the test system is db/db mice. The conditions noted are these: cited from earlier work.
The subject of another assay is bile duct-ligated mouse. The note with it: bile duct-ligated mouse model; cited from earlier work.
In assay [1] the test system is mice on a lithogenic diet. The conditions noted are these: cited from earlier work.
For assay [2], the system named is hepatic stellate cells (HSC). The conditions noted are these: cultured HSCs; cited from earlier work.
Assay [3] deals with rodent models of hepatic fibrosis. The conditions noted are these: multiple rodent models; cited from earlier work.
Assay [4] concerns the target T1, Human FXRα Ligand Binding Domain (Homo sapiens, UniProt Q96RI1).
T1 construct: polyhistidine (pRSET-A vector) (N); made in house; host or cells: E. coli BL21 (DE3), pRSET-A vector
T1 sequence (Q96RI1 237-472 isoform Q96RI1-2): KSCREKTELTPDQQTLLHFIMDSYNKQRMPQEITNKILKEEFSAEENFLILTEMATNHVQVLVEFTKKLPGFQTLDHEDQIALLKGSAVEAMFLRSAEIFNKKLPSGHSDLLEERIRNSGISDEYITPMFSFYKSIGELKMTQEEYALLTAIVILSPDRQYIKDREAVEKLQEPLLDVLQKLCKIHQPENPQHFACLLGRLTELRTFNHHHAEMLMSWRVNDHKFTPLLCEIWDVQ
The assay can be described thus: FXR Cofactor Binding Assay (FXR LBD / SRC-1 peptide, time resolved fluorescence). The note with it: FXRα LBD with biotinylated SRC-1 (LCD2, 676-700) peptide, read-out: Activity (pEC50) (converted). The source says: Determination of a ligand mediated cofactor peptide interaction to quantify ligand binding to the nuclear receptor Farnesoid X Receptor (FXR). The method measures the ability of putative ligands to modulate the interaction between the purified bacterial expressed FXRα ligand binding domain (LBD) and a synthetic biotinylated peptide based on residues 676-700 of steroid receptor coactivator-1 (SRC-1) (LXXLL-containing domain-2 where L is the amino acid leucine and X indicates any other amino acid (LCD2), 676-700). The sequence of the SRC-1 peptide used is as published in Iannone, M. A., et al., 2001 Cytometry 44:326-337 where the N-terminus was biotinylated (B) and the C-terminus was amidated. Detection of the associated complex was measured by time resolved fluorescence (TRF). The purified LBD of FXR was labeled with biotin then mixed with stoichiometric amounts of allophycocyanin (APC) labeled streptavidin (Molecular Probes). The biotinylated peptide was then mixed with a ½ stoichiometric amount of europium labeled streptavidin (Wallac Inc). Each was then blocked with a 5 fold excess of biotin and allowed to equilibrate for 15 min. Equimolar amounts of receptor and peptide were mixed together and were allowed to equilibrate for at least 30 min prior to the addition to either a variable or constant concentrations of the sample for which the affinity is to be determined. After equilibration, the time-resolved fluorescent signal was quantitated using a fluorescent plate reader. The affinity of the test compound was estimated from a plot of fluorescence versus concentration of test compound added.
A basal level of FXR: peptide formation is observed in the absence of added ligand. Ligands that promote the complex formation induce a concentration-dependent increase in time-resolved fluorescent signal. Compounds which bind equally well to both monomeric FXR and to the FXR: peptide complex would be expected to give no change in signal, whereas ligands which bind preferentially to the monomeric receptor would be expected to induce a concentration-dependent decrease in the observed signal.
Human FXRα Ligand Binding Domain (FXRα LBD) was expressed in E. coli strain BL21 (DE3) as an amino-terminal polyhistidine tagged fusion protein. Expression was under the control of an isopropyl-13-D-thiogalactopyranoside (IPTG) inducible T7 promoter. DNA encoding this recombinant protein is subcloned into the pRSET-A expression vector (Invitrogen). The coding sequence of Human FXRα LBD was derived from Genbank accession number U 68233 (amino acids 237 to 472).
Routinely, 30-40 g cell paste (equivalent to 2-3 liters of the fermentation batch) was resuspended in 200-250 mL Tris buffered saline (TBS), pH 7.2 (25 mM Tris-hydroxymethylamino methane (Tris), 150 mM sodium chloride). Cells were lysed by passing 3 times through a French Press and cell debris was removed by centrifugation (30 minutes, 20,000×gravity, 4° C.). The cleared supernatant was filtered through course pre-filters, and TBS, pH 7.2, 500 mM imidazole was added to obtain a final imidazole concentration of 50 mM. This lysate was loaded onto a column (6×8 cm) packed with Sepharose [Ni^|| charged]Chelation resin (Pharmacia) and pre-equilibrated with TBS pH 7.2/50 mM imidazole. After washing to baseline absorbance with equilibration buffer, the column was washed with one column volume of TBS pH 7.2 containing 90 mM imidazole. FXRα LBD was eluted directly with 365 mM imidazole. Column fractions were pooled and dialyzed against TBS, pH 7.2, containing 0.5 mM EDTA and 5 mM DTT. The dialyzed protein sample was concentrated using Centri-prep 10 K (Amicon) and subjected to size exclusion, using a column (3×90 cm) packed with Sepharose S-75 resin (Pharmacia) pre-equilibrated with TBS, pH 7.2, containing 0.5 mM ethylene diamine tetraacetic acid (EDTA) and 5 mM dithiothreitol (DTT). […]

For assay [5], the system named is high-fat diet fed obese mice. The assay can be described thus: Effects of FXR agonists on diet induced obese mice. It counts as in vivo, C57BL mice. The conditions noted are these: 10, 30, 100 mg/kg twice a day orally. The protocol: Methods: Male 20 to 25 g C57BL mice (Charles River, Indianapolis, Ind.) were housed at 72° F. and 50% relative humidity with a 12 h light and dark cycle and fed with standard rodent chow (Purina 5001, Harlan Teklad, Indianapolis, Ind.) or a high-fat diet (TD93075, Harlan Teklad, Indianapolis, Ind.) for eight weeks. After three weeks, mice on high-fat diet were randomized to vehicle or treatment groups based on fasting glucose and body weight. Starting from the fifth week, mice were given either vehicle or the compound in Example 1 (10, 30, and 100 mg/kg) or the compound in Example 5 (10, 30, 100 mg/kg) twice a day orally. Mice on the standard rodent chow were also given vehicle as a control. Body composition was measured using the quantitative magnetic resonance (QMR) method before and at the end of compound treatment. […] Serum chemistry levels were measured using the Instrumentation Laboratory Ilab600TM clinical chemistry analyzer (Instrumentation Laboratory, Boston, Mass.).

The mark [6] stands for this setting: 100 mg/kg twice a day orally, 100 mg/kg.
The mark [7] stands for this setting: db/db mice, oral 30 mg/kg, bid, serum.

Structures are written as SMILES. “Also recorded” adds a separate entry of the source.

Regarding `CC(C)c1onc(-c2c(Cl)cccc2Cl)c1COc1ccc(/C=C/c2cccc(C(=O)O)c2)c(Cl)c1` [GW4064], in the assay with mice on high-fat diet (setting [6]), the “body weight / high-fat diet induced body weight gain” value is on record as “decrease; also recorded: reduced”, the serum glucose result is recorded as “decreased”, the serum insulin entry is “decreased” and the serum triglyceride entry is “decreased”. In addition, the glucose tolerance result with mice on high-fat diet (100 mg/kg twice a day orally, GTT, 100 mg/kg) is reported as “corrected; also recorded: improve”. The liver triglyceride content entry in the assay on mice on high-fat diet (100 mg/kg twice a day orally) is listed as “reduced”. Besides, the body fat mass result with mice on high-fat diet was “decrease”. In addition, the total cholesterol entry in the assay with mice on high-fat diet (serum) is recorded as “decrease”. Also, in the assay on ob/ob mice, the body weight entry is recorded as “did not alter”, the fasting blood glucose result is listed as “no effect”, the food intake entry is “did not alter” and the glucose tolerance result was “improved”. Besides, in the assay with ob/ob mice, the insulin concentration entry was “decreased” and the insulin sensitivity result is “enhanced”. In addition, in the assay with db/db mice (db/db mice), the “glycogen storage in the liver” value is reported as “enhanced” and the “insulin signalling in the liver” value is recorded as “enhanced”. For the same molecule, in the assay with db/db mice (db/db mice, oral 30 mg/kg, bid), the blood glucose result is listed as “decreased” and the “serum β-hydroxybutyrate” value is “decreased”. In addition, in the assay on db/db mice (setting [7]), the NEFA entry is recorded as “decreased”, the total cholesterol entry is given as “decreased” and the triglyceride result is listed as “decreased”. In addition, in the assay with db/db mice (diabetic db/db mice), the hyperglycemia result is reported as “significantly improved” and the hyperlipidemia entry is on record as “significantly improved”. Also, in the assay with bile duct-ligated mouse, the bacterial overgrowth entry is “decreased”, the mucosal barrier entry was “improved” and the “translocation of bacteria to mesenteric lymph nodes” value is recorded as “decreased”. For the same molecule, the “formation of cholesterol crystals in the bile” value in assay [1] is on record as “prevented”.

Turning to `CC[C@H]1[C@@H](O)[C@@H]2[C@H](CC[C@]3(C)[C@@H]([C@H](C)CCC(=O)O)CC[C@@H]23)[C@@]2(C)CC[C@@H](O)C[C@@H]12` [Example 6EtCDCA, 6-ethyl-chenodeoxycholic acid], in [2], the “expression of α1(I)collagen” value was “decreased” and the “expression of α-smooth muscle actin” value is “decreased”. Besides, the hepatic fibrosis result in assay [3] was “prevent development and promote resolution”.

`CC(C)c1onc(-c2c(Cl)cccc2Cl)c1COc1ccc(-c2ccc3cc(C(=O)O)ncc3c2)cc1` [Example 5, 7-[4-({[3-(2,6-Dichlorophenyl)-5-(1-methylethyl)-4-isoxazolyl]methyl}oxy)phenyl]-3-isoquinolinecarboxylic acid]: in assay [4], the EC50 is 0.102 to 1 µM. In addition, the serum glucose result in assay [5] was “decreased”. The body fat mass entry in assay [5] (QMR) was “decreased”. In assay [5] (serum), the NEFA entry is recorded as “decreased”, the cholesterol entry is recorded as “decreased”, the glycerol result is given as “decreased” and the insulin result is on record as “decreased”. Moreover, the triglyceride entry in assay [5] (serum) is “decreased”.
